Source: ChEMBL document CHEMBL6127129 (J Nat Prod, 2024)

Target: Estrogen receptor beta (Homo sapiens, UniProt Q92731)
Sequence (Q92731 whole entry): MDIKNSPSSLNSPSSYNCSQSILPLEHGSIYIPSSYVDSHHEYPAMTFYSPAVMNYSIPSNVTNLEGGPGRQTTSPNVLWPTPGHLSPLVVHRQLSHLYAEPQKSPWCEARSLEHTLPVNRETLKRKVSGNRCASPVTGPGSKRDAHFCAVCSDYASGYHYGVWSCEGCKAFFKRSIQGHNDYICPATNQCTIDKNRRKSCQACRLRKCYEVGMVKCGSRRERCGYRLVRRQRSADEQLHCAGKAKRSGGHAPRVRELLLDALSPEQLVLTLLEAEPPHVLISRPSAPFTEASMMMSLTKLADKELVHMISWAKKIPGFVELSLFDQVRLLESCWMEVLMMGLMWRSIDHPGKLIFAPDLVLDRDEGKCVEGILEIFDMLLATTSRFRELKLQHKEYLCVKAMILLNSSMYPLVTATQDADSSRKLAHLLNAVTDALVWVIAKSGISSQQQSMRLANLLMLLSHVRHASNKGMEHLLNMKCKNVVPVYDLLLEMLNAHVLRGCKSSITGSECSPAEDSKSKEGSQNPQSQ
Description: Antagonist activity at human ER-beta transfected in human HepG2 cells incubated for 24 hrs by 3xERE-driven luciferase reporter assay

IC50: 1320 µM
Structure (SMILES): C=CCc1ccc(OC(=O)CCC)c(-c2ccc(O)c(CC=C)c2)c1
